Where two headings read alike, the source gives them in different places.
What was measured:
[1] = system: Magnaporthe grisea (Pyricularia oryzae—PYRIOR); experiment: microbe, parasite or virus in culture; assay type: cell-based; details: Pyricularia oryzae, read-out: PYRIOR in vitro Growth Inhibition
[2] = system: Rhizoctonia solani (RHIZSO); experiment: microbe, parasite or virus in culture; assay type: cell-based; details: Rhizoctonia solani, read-out: RHIZSO in vitro Growth Inhibition
[3] = system: Mycosphaerella graminicola (Septoria tritici—SEPTTR); experiment: In vitro fungal growth inhibition, Mycosphaerella graminicola (SEPTTR); assay type: cell-based; details: Zymoseptoria tritici, read-out: SEPTTR in vitro Growth Inhibition
[4] = system: Stagonospora nodorum (Leptosphaeria nodorum—LEPTNO); experiment: In vitro fungal growth inhibition, Stagonospora nodorum (LEPTNO); assay type: cell-based; details: Leptosphaeria, read-out: LEPTNO in vitro Growth Inhibition
Ustilago maydis (USTIMA) = experiment: microbe, parasite or virus in culture; assay type: cell-based; details: Mycosarcoma maydis, read-out: USTIMA in vitro Growth Inhibition
[5] = system: Phytophthora infestans (PHYTIN); experiment: microbe, parasite or virus in culture; assay type: cell-based; details: Phytophthora infestans, read-out: PHYTIN in vitro Growth Inhibition
[6] = system: Phytophthora infestans—PHYTIN; experiment: whole plant or invertebrate; assay type: in vivo; details: Phytophthora, in Solanum lycopersicum, 24 h, read-out: PHYTIN in vivo 1 Day Protectant
[7] = system: Puccinia recondita—PUCCRT; experiment: Brown Rust of Wheat, in vivo whole plant, 24 Hour Protectant; details: Puccinia, read-out: PUCCRT in vivo 1 Day Protectant
Erysiphe graminis—ERYSGT = experiment: Powdery Mildew of Wheat, in vivo whole plant, 24 Hour Protectant; details: Erysiphe, read-out: ERYSGT in vivo 1 Day Protectant
Septoria tritici—SEPTTR = experiment: Leaf Blotch of Wheat, in vivo whole plant, 24 Hour Protectant; details: Zymoseptoria tritici, 24 h, read-out: SEPTTR in vivo 1 Day Protectant
[8] = system: Leptosphaeria nodorum—LEPTNO; experiment: Glume Blotch of Wheat, in vivo whole plant, 24 Hour Protectant; details: Leptosphaeria, read-out: LEPTNO in vivo 1 Day Protectant
[9] = 100 ppm spray, 24 hour protectant, wheat, control of fungal infection vs untreated plants
[10] = wheat plants sprayed at 100 ppm, inoculated after 24 hours, control of fungal infection vs untreated plants
[11] = 100 ppm spray, wheat, 24 hour protectant, % control of fungal infection vs untreated plants
[12] = 100 ppm spray, wheat, 24 hour protectant, control of fungal infection vs untreated plants

SMILES | inhibition at 25 ppm [1] | inhibition at 25 ppm [2] | inhibition at 25 ppm ([3]; 25 ppm in growth medium) | inhibition at 25 ppm ([4]; 25 ppm in growth medium) | inhibition at 25 ppm (Ustilago maydis (USTIMA)) | inhibition at 25 ppm [5] | pest or weed control at 100 ppm [6] | pest or weed control at 100 ppm [7, 9] | pest or weed control at 100 ppm (Erysiphe graminis—ERYSGT; [9]) | pest or weed control at 100 ppm (Septoria tritici—SEPTTR; [9]) | pest or weed control at 100 ppm [8, 9] | melting point | further results
COc1cccc(CNC(=O)c2ncccc2O)c1 [Compound 225] | < 80% | < 80% | < 80% | < 80% | < 80% | > 80% | < 25% | < 25% | < 25% | < 25% | < 25% | 41 to 43 °C | –
Cc1ncc(C(=O)NC2CC(C)(C)CC(C)(C)C2)c(O)n1 [Compound 541] | < 80% | < 80% | – | – | < 80% | < 80% | < 25% | – | – | – | – | > 300 °C | inhibition at 25 ppm ([3]; 25 ppm in the growth medium): < 80%; inhibition at 25 ppm ([4]; 25 ppm in the growth medium): < 80%; pest or weed control at 100 ppm [7, 10]: < 25%; pest or weed control at 100 ppm (Erysiphe graminis—ERYSGT; [10]): < 25%; pest or weed control at 100 ppm (Septoria tritici—SEPTTR; [10]): 25 to 74%; pest or weed control at 100 ppm [8, 10]: < 25%
COc1ccnc(C(=O)N[C@H]2COC(=O)[C@H](Cc3ccccc3)[C@@H](OC(=O)C(C)C)[C@H](C)OC2=O)c1OC(=O)CC(C)(C)C [Compound 610] | < 80% | < 80% | < 80% | > 80% | < 80% | < 80% | < 25% | – | – | – | – | 151 to 152 °C | pest or weed control at 100 ppm [7, 11]: 25 to 74%; pest or weed control at 100 ppm (Erysiphe graminis—ERYSGT; [11]): < 25%; pest or weed control at 100 ppm (Septoria tritici—SEPTTR; [11]): < 25%; pest or weed control at 100 ppm [8, 11]: < 25%
CC1(C)CC(NC(=O)c2cnccc2O)CC(C)(C)C1 [Compound 502] | < 80% | < 80% | – | – | < 80% | < 80% | < 25% | – | – | – | – | 232 to 235 °C (dec.) | inhibition at 25 ppm ([3]; 25 ppm in the growth medium): < 80%; inhibition at 25 ppm ([4]; 25 ppm in the growth medium): < 80%; pest or weed control at 100 ppm [7, 10]: 25 to 74%; pest or weed control at 100 ppm (Erysiphe graminis—ERYSGT; [10]): < 25%; pest or weed control at 100 ppm (Septoria tritici—SEPTTR; [10]): 25 to 74%; pest or weed control at 100 ppm [8, 10]: 25 to 74%
COc1ccnc(C(=O)Nc2ccc(C(=O)Oc3cccc(C(F)(F)F)c3)cc2)c1O [Compound 451] | > 80% | < 80% | < 80% | < 80% | < 80% | < 80% | < 25% | – | – | – | – | 196 °C (dec.) | pest or weed control at 100 ppm [7, 12]: 25 to 74%; pest or weed control at 100 ppm (Erysiphe graminis—ERYSGT; [12]): < 25%; pest or weed control at 100 ppm (Septoria tritici—SEPTTR; [12]): < 25%; pest or weed control at 100 ppm [8, 12]: 25 to 74%
O=C(NCc1cccc(Cl)c1)c1ncccc1O [Compound 219] | > 80% | > 80% | > 80% | > 80% | > 80% | > 80% | < 25% | < 25% | < 25% | < 25% | < 25% | 65 to 67 °C | –
COc1ccnc(C(=O)N[C@H]2CC[C@@H](Oc3ccc(C(F)(F)F)cc3)CC2)c1O [Compound 271] | > 80% | > 80% | > 80% | > 80% | > 80% | > 80% | 25 to 74% | < 25% | < 25% | 25 to 74% | 25 to 74% | 181 to 183 °C (dec.) | –
